From patent publication US5002972A, “Compound and composition of substituted hexenoic acid derivatives useful for treating thromboxane A2 mediated diseases” (Shionogi & Co., Ltd., priority 1989, dated 1991) come the findings set out here.

Data set [1] deals with washed platelets. Kind of data set: Inhibitory effect on collagen-induced platelet aggregation (antagonistic activity), rat washed platelets. To be noted: 0.05 h, collagen 4 μg/ml as inducer, light transmission 3 minutes after inducer, read-out: Inhibition for Platelet Aggregation IC50. Type of data set: cell-based. The method, then: (§1) From the abdominal artery of a male rat (Sprague-Dowley, 8 weeks old) was collected 10 ml of blood with a plastic syringe containing 1.5 ml of ACD (85 mM of sodium citrate, 70 mM of citric acid, 110 mM of glucose) and 20 μg of prostaglandin E1. The blood is placed in a plastic test tube, shaken moderately turning and centrifuged for 10 minutes at 160×g to give platelet rich plasma (PRP). To the prepared PRP was added apyrase (25 μg/ml) and the mixture was layered on 40% bovine serum albumin. The resulting mixture is centrifuged at 1200×g for 25 minutes. The platelet pellets suspended in a small amount of a buffer (137 mM of NaCl, 2.7 mM of KCl, 1.0 mM of MgCl2, 3.8 mM of NaH2 PO4, 3.8 mM of Hepes, 5.6 mM of glucose, 0.035% of bovine serum albumin, pH 7.35) was applied on 10 ml of Sephaose 2B column and eluted with such a buffer to prepare washed platelets.
(§2) The platelet aggregation reaction was measured by an aggregometer (NKK HEMA TRACER 1 MODEL PAT-6A.6M, Niko bioscience). In a measuring cuvette was placed 245 μl of the washed platelets of which platelet concentration was adjusted to 5×10^5 / μl and set in the aggregometer. The adjusted washed platelet was stirred (1000 rpm) at 37° C. and 3.8 μl of 0.1M of CaCl2 was added thereto. One minute later, 0.5 μl of a solution of a test compound in dimethylsulfoxide was added and 2 minutes later, 1 μl of collagen (Collagen reagent Horm®, HORMON-CHEMIE Munchen GMBH, final concentration 4 μg/ml) as an inducer for platelet aggregation was added. The platelet aggregation was monitored with an aggregometer in terms of the increase and decrease in light transmission.
Concentration of 50% inhibition was calculated from the inhibitory rate of aggregation (this correspondes to light transmission of a sample which is measured at 3 minutes after the addition of a platelet aggregating inducer, provided that light transmissions of the washed platelets and the buffer samples are taken as 0% and 100%, respectively.)

A short description of data set [2]: Acute toxicity, intravenous, mice. The conditions noted are these: mouse, in vivo, male SclddY mice, tail vein injection in saline, mortality within 24 hours, Probit method. The method, then:
Male SclddY mice (4-weekage, 23-27 g) were used. Each experimental group consists of 5 animals. After injecting the test compound dissolved in saline into a tial vein, the mortality within 24 hours was obtained as an LD50 value by the Probit method.

The test system of data set [3] is washed platelets. The data set can be described thus: Partial agonistic activity (shape change of rat platelets). In kind it is cell-based. The conditions noted are these: Platelet, decrease in light transmission by test compound itself, 50% of maximal agonistic activity of reference compound, read-out: Activity of Partial Agonist EC50. As for the experimental part: as §1, §2
The measurement of partial agonistic activity was carried out according to the method shown for platelet aggregation. To the washed platelets was added 0.1M of CaCl2 and one minute later a test compound was added thereto. The decrease in light transmission caused by the test compound itself was measured to estimate the activity.

pEC50, pIC50: −log10 of the molar value.

As usually defined, the pIC50 is the negative decadic logarithm of the IC50, by convention in mol/L. As usually defined, the LD50 is the dose expected to kill half of the subjects tested. A higher LD50 goes with lower toxicity. As usually defined, the pEC50 is the EC50 on a negative log10 scale, so that one unit is a factor of ten. For the molecule `O=C(O)CCC/C=C\[C@H]1[C@@H]2CC[C@@H](C2)[C@@H]1NS(=O)(=O)c1ccccc1` [Ia-c, (1R,2R,3S,4S)-sodium (5Z)-6-(3-phenylsulfonylaminobicyclo[2.2.1]hept-2-yl)-5-hexenoate], the pIC50 with washed platelets [1] was 8.22. In data set [2], this molecule returned an LD50 at 24 h of 237 mg/kg. Moreover, the pEC50 in the data set with washed platelets [3] is below 6.00.
On to `Cc1ccc(S(=O)(=O)N[C@H]2[C@H]3CC[C@H](C3)[C@@H]2/C=C\CCCC(=O)O)cc1` [Ib-c, (1R,2R,3S,4S)-sodium (5Z)-6-[3-(p-tolylsulfonylamino)bicyclo[2.2.1]hept-2-yl]-5-hexenoate], for which the pIC50 in the data set on washed platelets [1] is 8.22. In addition, in the data set on washed platelets [3], the pEC50 is below 6.00.
As to `O=C(O)CCC/C=C\[C@H]1[C@@H]2CC[C@@H](C2)[C@@H]1NS(=O)(=O)c1ccc(O)cc1` [Ic-c, (1R,2R,3S,4S)-sodium (5Z)-6-[3-(4-hydroxyphenylsulfonylamino)bicyclo[2.2.1]hept-2-yl]-5-hexenoate], the pIC50 in the data set on washed platelets [1] is 8.22. Further, the pEC50 with washed platelets [3] was 6.82.
Regarding `O=C(O)CCC/C=C\[C@H]1[C@@H]2CC[C@@H](C2)[C@@H]1NS(=O)(=O)c1ccc(Br)cc1` [Id-c, (1R,2R,3S,4S)-sodium (5Z)-6-[3-(4-bromophenylsulfonylamino)bicyclo[2.2.1]hept-2-yl]-5-hexenoate], the negative-log IC50 (pIC50) in the data set on washed platelets [1] was 8.30. Further, the pEC50 with washed platelets [3] was 6.89.
The like results for `O=C(O)CCC/C=C\[C@H]1[C@@H]2CC[C@@H](C2)[C@@H]1NS(=O)(=O)c1ccc(Cl)cc1` [Ie-c, (1R,2R,3S,4S)-sodium (5Z)-6-[3-(4-chlorophenylsulfonylamino)bicyclo[2.2.1]hept-2-yl]-5-hexenoate] were, in that order, 8.30 and 6.52.
In the case of `O=S(=O)(N[C@H]1[C@H]2CC[C@H](C2)[C@@H]1/C=C\CCCc1nnn[nH]1)c1ccccc1` [If-c, (1R,2R,3S,4S)-3-phenylsulfonylamino-2-[(1Z)-5-(5-tetrazolyl)-1-pentenyl]bicyclo[2.2.1]heptane], the pIC50 in the data set on washed platelets [1] was 8.40. This molecule gave a 50% lethal dose (LD50) at 24 h in data set [2] of 209 mg/kg. For the same molecule, the pEC50 in the data set on washed platelets [3] is below 6.00.
As for `Cc1ccc(S(=O)(=O)N[C@H]2[C@H]3CC[C@H](C3)[C@@H]2C/C=C\CCCC(=O)O)cc1` [Rf. Compd., reference compound], the pIC50 in the data set with washed platelets [1] is 8.70. For the same molecule, the pEC50 with washed platelets [3] is 9.00.
